# Results: patent publication US6080735A, “Estra-1,3,5(10)-trien derivatives, processes for their preparation and pharmaceutical compositions containing these compounds” (priority 1994, dated 2000)
# Read-outs that look alike come from different tables or passages of the source.
# Columns and labels:
# liver = settings: cited from earlier work
# [1] = cited from earlier work
# [2] = system: uterus (ovariectomised rats); assay: Uterus weight after oral treatment of ovariectomised rats (oral estrogen effects, sexual function); assay type: in vivo; settings: ovariectomised rat, 10 μg/animal/d p.o., d1 to d7
# Source text: The adult female experimental animals (breeder: HSD/WIN:WU) were ovariectomised (Day […]). Treatment with one daily oral application of test substances was started two weeks after ovariectomy. All animals were assigned to groups by randomised approach. The experiment was a block design. All animals were weighed twice, prior to and at the end of the experiment. Start and end of treatment were defined as Day 1 (=d1) or Day 7 (=d7). The animals were sacrificed on Day 8. Several organs (uterus, adrenal glands, liver) were removed and weighed and were passed on in deep-frozen condition (-196° C.) for further investigation.
# [3] = Blood level after oral application to ovariectomised rats; assay type: in vivo; settings: ovariectomised rat, 10 μg/animal/d p.o., d1 to d7
# Method: Evidence was provided to hepatic estrogenicity in ovariectomised rats: The adult female experimental animals (breeder: HSD/WIN:WU) were ovariectomised (Day […]). Treatment with one daily oral application of test substances was started two weeks after ovariectomy.
# Start and end of treatment were defined as Day 1 (=d1) or Day 7 (=d7). The animals were sacrificed on Day 8. Several organs (uterus, adrenal glands, liver) were removed and weighed and were passed on in deep-frozen condition (-196° C.) for further investigation.
# Blood was taken from the retrobulbar plexus prior to treatment (d0) as well as on (d4) and (d8), with the animals etherized. The serum thus obtained was used to determine IGF1, angiotensin I, cholesterol and HDL cholesterol.
# [4] = cited from earlier work; remark: listed apart in the source
# angiotensin = settings: EE 30 μg to 20 μg with 150 μg gestagen (desogestrel), cited from earlier work
# [5] = 0-24 hours from application, Goldzieher
compound,measurement,setting,value
CC/C(=C(/CC)c1ccc(O)cc1)c1ccc(O)cc1 [DES],"Hepatic estrogenicity, in words","liver; oral, compared with conjugated and natural estrogens",Even stronger hepatic estrogenicity
"C[C@]12CC[C@@H]3c4ccc(O)cc4CC[C@H]3[C@@H]1CC[C@@H]2O [Estradiol (E2), estradiol]",Bioavailability after oral application,"[1]; in vivo, po",tends to be minimised
same,Uterus weight,[2],182 mg
same,Blood level,[3],0.0192 ng/mL (serum)
"C[C@]12CC[C@@H]3c4ccc(O)cc4CC[C@H]3[C@@H]1C[C@@H](O)[C@@H]2O [Estriol (E3), estriol]",Bioavailability after oral application,[1]; in words,tends to be minimised
"C#C[C@]1(O)CC[C@H]2[C@@H]3CCc4cc(O)ccc4[C@H]3CC[C@@]21C [Ethinyl estradiol (EE), ethinyl estradiol]",highest AUC recorded,[4]; [5],2.121 ng·h/mL
same,lowest AUC,[4]; [5],0.284 ng·h/mL
same,Oral bioavailability compared with natural estrogens,"[4]; human, oral, in words",much better in bioavailability
same,"Hepatic estrogenicity, in words","liver; in vivo, po",Even stronger hepatic estrogenicity
same,Estrogenic effectiveness in the liver relative to orally administered natural estrogens,liver; in vivo,eight to ten times as high
same,Effect of dose reduction on increased angiotensin levels,angiotensin; six months,marginally reduced values
same,Effect of dose reduction on increased angiotensin levels,angiotensin; three months,did not result in reduction
same,Uterus weight,[2],353 mg
same,Blood level,[3],0.0289 ng/mL (serum)
"CN(C)S(=O)(=O)Oc1ccc2c(c1)CC[C@@H]1[C@@H]2CC[C@]2(C)[C@@H](O)C[C@@H]3C[C@]312 [J 982, 17β-hydroxy-14α,15α-methylene-estra-1,3,5(10)-trien-3-yl N,N-dimethylsulfamate]",Uterus weight,[2],193 mg
"CCN(CC)S(=O)(=O)Oc1ccc2c(c1)CC[C@@H]1[C@@H]2CC[C@]2(C)[C@@H](O)C[C@@H]3C[C@]312 [J 983, 17β-hydroxy-14α,15α-methylene-estra-1,3,5(10)-trien-3-yl N,N-diethylsulfamate]",Uterus weight,[2],349 mg
"CCN(CC)S(=O)(=O)Oc1ccc2c(c1)CC[C@@H]1[C@@H]2CC[C@]2(C)[C@@H](O)[C@H](O)C[C@@H]12 [J 984, 16α,17β-dihydroxy-estra-1,3,5(10)-trien-3-yl N,N-diethylsulfamate]",Uterus weight,[2],246 mg
"CN(C)S(=O)(=O)Oc1ccc2c(c1)CC[C@@H]1[C@@H]2CC[C@]2(C)[C@@H](O)[C@H](O)C[C@@H]12 [J 989, 16α,17β-dihydroxy-estra-1,3,5(10)-trien-3-yl N,N-dimethylsulfamate]",Uterus weight,[2],183 mg
C[C@]12CC[C@@H]3c4ccc(OS(=O)(=O)O)cc4CC[C@H]3[C@@H]1CCC2=O [estrone sulphate],Bioavailability after oral application,[1]; in words,tends to be minimised
C[C@]12CC[C@@H]3c4ccc(O)cc4CC[C@H]3[C@@H]1CCC2=O [estrone],Bioavailability after oral application,"[1]; in vivo, po",tends to be minimised
